Source: article PMC8586700 (Frontiers in Pharmacology, 2021)
Like-named read-outs stand apart in the source and are kept apart here.

Key:
[1] = Repeated administration, drug concentrations of plasma and brain; type: in vivo, SD rats; conditions: for Mean concentrations±sd, DHC in plasma after multiple doses: loading dose then half doses for four consecutive days
Experimental: (§1) Plasma or brain homogenate of SD rats was taken 50 μL, internal standard solution of 50 μL and protein precipitator of 150 μL were added. After eddy oscillation for 3 min, supernatant was separated by centrifugation.
The concentration of drugs in plasma and brain homogenate after repeated administration was determined according to the same grouping and administration method. The loading dose of 200 mg kg^−1 was given for the first time and half doses for four consecutive days.
(§2) Plasma was collected by centrifugation of blood at 3000 RPM for 10min, and stored at -80 °C. Brain tissue of SD rat was dissected, weighed and added with normal saline at a volume of 2 ml g^−1. After homogenating brain tissue for 3 min by a homogenizer at 14,000 RPM, the supernatant was collected after centrifugation at 12,000 RPM for 10 min.

[2] = Stability experiment in plasma and brain homogenate samples; type: in vitro ADME, SD rats
Experimental: Three blank samples of plasma and brain homogenate of SD rats were added into the mixed standard solution. The stability experiment included placing at room temperature for 12 h, repeatedly freeze-thaw for three times and frozen for 15 days.

[3] = Pharmacokinetic experiment, single intragastric administration, plasma by HPLC-UV; type: in vivo, SD rats; conditions: for AUC / Cmax / half-life / Tmax / concentration at 40 min / concentration at 60 min / concentration at 90 min / concentration at 150 min / concentration at 210 min: SD (Sprague-Dawley); for AUC / Cmax / half-life / Tmax / concentration at 40 min / concentration at 60 min / concentration at 90 min / concentration at 150 min / concentration at 210 min / concentration at 20 min / concentration at 270 min / concentration at 330 min: rat, plasma, po; for AUC / Cmax / half-life / Tmax: 200 mg/kg; for AUC: read-out: AUC(0-tn) of DHC (converted); for Cmax: read-out: Cmax of DHC; for half-life: read-out: T1/2 of DHC; for Tmax: read-out: Tmax of DHC (converted); for concentration at 40 min / concentration at 60 min / concentration at 90 min / concentration at 150 min / concentration at 210 min / concentration at 20 min / concentration at 270 min / concentration at 330 min: read-out: Mean concentrations ±sd, DHC; for concentration at 20 min / concentration at 270 min / concentration at 330 min: SD
Experimental: An Agilent 1200 HPLC system was used. […] The flow rate was set at 1 ml min^−1 and detection wavelength was 420, 340 and 323 nm. Injection volume was 5 μL. The column temperature was set at 30°C.
as §1
Blood samples were collected from tail vein at 20 min, 40 min, 1, 1.5, 2.5, 3.5, 4.5, and 5.5 h after intragastric administration.
as §2

[4] = Group A: CUR 200 mg kg^−1 oral alone
[5] = Group B: CUR 200 mg kg^−1 and PIP 150 mg kg^−1 oral
[6] = Group C: CUR 200 mg kg^−1 and ILE 150 mg kg^−1 oral
[7] = Group A (CUR 200 mg kg^−1 oral alone)
[8] = Group B (CUR 200 mg kg^−1 and PIP 150 mg kg^−1 oral)
[9] = Group C (CUR 200 mg kg^−1 and ILE 150 mg kg^−1 oral)
[10] = combined CUR and ILE compared with CUR alone
[11] = combined CUR and ILE compared with combined administration with PIP
[12] = combined CUR and PIP compared with single CUR administration

Mean concentrations±sd, DHC in plasma after multiple doses ([1]; Group I: CUR): 1.4 ± 0.6 µg/mL
Mean concentrations±sd, DHC in plasma after multiple doses ([1]; Group II: CUR and PIP): 4.6 ± 1.8 µg/mL
Mean concentrations±sd, DHC in plasma after multiple doses ([1]; Group III: CUR and ILE): 8.7 ± 2.5 µg/mL
Detection in brain tissue ([1]; after repeated administration): could not be detected
Recoveries after repeated freezing-thawing for three times ([2]; plasma): over 100%
Recoveries after being kept at room temperature for 12 h ([2]; plasma samples): less than 30%
CL of DHC [3, 4]: 233.2 ± 7.8 mL/min
Vd of DHC [3, 4]: 9,087.6 ± 302.9 mL
CL of DHC [3, 5]: 70.0 ± 3.3 mL/min
Vd of DHC [3, 5]: 2,802.6 ± 133.4 mL
CL of DHC [3, 6]: 52.7 ± 2.3 mL/min
Vd of DHC [3, 6]: 3,751.4 ± 165.6 mL
AUC [3, 4]: 7.61 µg·h/mL
Cmax [3, 4]: 6.1 ± 3.2 µg/mL
half-life [3, 4]: 24.8 ± 9.3 min
Tmax [3, 4]: 26 min
AUC [3, 5]: 7.06 µg·h/mL
Cmax [3, 5]: 7.5 ± 1.1 µg/mL
half-life [3, 5]: 25.4 ± 6.3 min
Tmax [3, 5]: 22 min
AUC [3, 6]: 16.8 µg·h/mL
Cmax [3, 6]: 9.2 ± 2.4 µg/mL
half-life [3, 6]: 114 ± 31.2 min
Tmax [3, 6]: 18 min
concentration at 40 min [3, 7]: 3.5 ± 0.9 µg/mL
concentration at 60 min [3, 7]: 1.8 ± 0.5 µg/mL
concentration at 90 min [3, 7]: 1.4 ± 0.5 µg/mL
concentration at 150 min [3, 7]: 1.2 ± 0.7 µg/mL
concentration at 210 min [3, 7]: 1.1 ± 0.3 µg/mL
concentration at 40 min [3, 8]: 4 ± 0.6 µg/mL
concentration at 60 min [3, 8]: 2.6 ± 0.5 µg/mL
concentration at 90 min [3, 8]: 2 ± 0.4 µg/mL
concentration at 150 min [3, 8]: 1 ± 0.3 µg/mL
concentration at 210 min [3, 8]: 0.6 ± 0.2 µg/mL
concentration at 40 min [3, 9]: 6.3 ± 0.7 µg/mL
concentration at 60 min [3, 9]: 4.8 ± 0.7 µg/mL
concentration at 90 min [3, 9]: 4 ± 1.2 µg/mL
concentration at 150 min [3, 9]: 3.8 ± 0.7 µg/mL
concentration at 210 min [3, 9]: 2.6 ± 0.1 µg/mL
concentration at 20 min [3, 7]: 6.1 ± 3.2 µg/mL
concentration at 270 min [3, 7]: 0.9 ± 0.4 µg/mL
concentration at 330 min [3, 7]: 0.8 ± 0.4 µg/mL
concentration at 20 min [3, 8]: 7.5 ± 1.1 µg/mL
concentration at 270 min [3, 8]: 0.25 ± 0.03 µg/mL
concentration at 330 min [3, 8]: 0.15 ± 0.03 µg/mL
concentration at 20 min [3, 9]: 9.2 ± 2.4 µg/mL
concentration at 270 min [3, 9]: 1.4 ± 0.7 µg/mL
concentration at 330 min [3, 9]: 0.6 ± 0.2 µg/mL
AUC(0-tn) of DHC increased by [3, 10]: 1.2 times
CL of DHC reduced by [3, 10]: 77.4%
Cmax of DHC increased by [3, 10]: 50.8%
T1/2 of DHC increased by [3, 10]: 3.6 times
Tmax of DHC decreased by [3, 10]: 30.8%
Vd of DHC reduced by [3, 10]: 58.6%
Vd of DHC increased by ([3]; combined CUR and ILE compared with CUR and PIP combined): 34%
CL of DHC reduced by ([3]; combined CUR and ILE compared with CUR combined with PIP): 24.6%
AUC(0-tn) of DHC increased by [3, 11]: 1.4 times
Cmax of DHC increased by [3, 11]: 22.7%
T1/2 of DHC increased by [3, 11]: 3.5 times
Tmax of DHC decreased by [3, 11]: 18.2%
AUC(0-tn) of DHC decreased by [3, 12]: 7.2%
CL of DHC decreased by [3, 12]: 70%
Cmax of DHC increased by [3, 12]: 23%
Tmax of DHC decreased by [3, 12]: 15.4%
Vd of DHC decreased by [3, 12]: 69.2%
Structure (SMILES): COc1cc(/C=C/C(=O)CC(=O)CCc2ccc(O)c(OC)c2)ccc1O [DHC, Dihydrocurcumin]
